{"source": "patent US20080300298A1", "about": "“Honokiol Derivates For the Treatment of Proliferative Disorders” (priority 2005, published 2008)", "key": {"[1]": {"system": "COX2 promoter", "assay": "COX-2 promoter-dependent reporter luciferase gene expression", "type": "cell-based, human", "conditions": "0.1 nM TNF 24 h", "protocol": "H1299 cells were transiently transfected with a COX-2 promoter plasmid linked to the luciferase gene and then treated with the indicated concentrations of honokiol. After 24 h in culture with 0.1 nM TNF, cell supernatants were collected and assayed for luciferase activity. Results are expressed as fold activity over the activity of the vector control. Values are means ±SD (indicated as error bars) of triplicate cultures for a representative experiment out of 3 independent ones showing similar results.\nCOX-2 promoter-dependent reporter luciferase gene expression. COX-2 promoter activity was examined as described elsewhere (Shishodia, S., et al. 2003 Cancer Res. 63:4375-4383). To further determine the effect of honokiol on COX-2 promoter, A293 cells were seeded at a concentration of 1.5×10^5 cells per well in six-well plates. […] The COX-2 promoter (−375 to +59), which was amplified from human genomic DNA by using the primers 5′-[sequence]-3′ (sense) and 5′-[sequence]-3′ (antisense). After a 6-h exposure to the transfection mixture, the cells were incubated in medium containing honokiol for 12 h. The cells were exposed to TNF (0.1 nM) for 24 h and then harvested. Luciferase activity was measured by using the Luclite luciferase assay system (Perkin-Elmer, Boston, Mass.) according to the manufacturer's protocol and detected by luminometer (Victor 3, Perkin-Elmer)."}, "[2]": {"system": "RPM18226 cells", "assay": "APO2.7 staining", "type": "cell-based, human", "conditions": "RPM18226, 10 ug/ml, 24 h", "description": "(§1) Assessment of HNK-induced cytotoxicity against patient MM cells: […] A CD38^high fraction enriched for MM cells was determined in side and forward scatter panel in each case. The expression of CD138 on gated cells was also evaluated. After HNK-treatment for 48 h, cells were harvested and percentage of CD38^high cells with or without HNK-treatment was evaluated. Cell cycle analysis: MM cells cultured with HNK were harvested, fixed with 70% ethanol, and pretreated with 250 μg/mL of RNAse (Sigma, St Louis, Mo.). Cells were stained with propidium iodide (PI; 50 μg/mL; Sigma, St Louis, Mo.), and cell cycle profile was determined by using the program M software on an EPICS XL flow cytometer (Beckman Coulter, Hialeah, Fla.). Detection of apoptosis and caspase-3 activity: TdT-mediated d-UTP nick end labeling (TUNEL) assay (MBL, Nagoya, Japan) and APO 2.7 staining (Immunotech, Marseille, France) were used to determine apoptosis. In brief, cells were fixed and permeabilzed by 4% paraformaldehyde and 70% ethanol, respectively, and incubated with a mixture of FITC-dUTP and TdT for 1 h at 37° C. for TUNEL assay. For detection of mitochondrial membrane protein 7A6 expression on apoptotic cells, cells were incubated with APO 2.7 reagent for 20 minutes. Fluorescence intensity of TUNEL and APO 2.7 staining was determined using on EPICS XL flow cytometer. Cytotoxicity was determined by trypan blue exclusion assay. […] Cell growth and induction of apoptosis were determined both by colorimetric assay and now cytometric detection of APO2.7 after 48 h treatment. […] Proliferation of MM cells was then assessed by [^3H]-thymidine uptake. […] DNA synthesis was measured by [^3H]-thymidine uptake. […] Angiogenesis assay: The anti-angiogenic effect of HNK was determined using an In Vitro Angiogenesis Assay Kit (Chemicon, Temecula, Calif.). […] After 6 h, tube formation by endothelial cells was evaluated. Direct toxicity of HNK against HUVEC was determined by calorimetric assay. […]"}, "[3]": {"system": "normal PBMNCs", "assay": "APO2.7 staining", "type": "cell-based, human", "conditions": "15 ug/ml, 48 h, n=3", "description": "as §1"}, "[4]": {"system": "MM.1S cells", "assay": "APO2.7 staining", "type": "cell-based, human", "conditions": "10 ug/ml, 24 h", "description": "as §1"}, "[5]": {"system": "KBM-5 cells", "assay": "Annexin V assay", "type": "cell-based, human", "conditions": "KBM-5, honokiol 12 h then 1 nM TNF 16 h", "excerpt": "(D) depicts that honokiol enhances TNF-induced cell death.\nAnnexin V assay. One of the early indicators of apoptosis is the rapid translocation and accumulation of the membrane phospholipid phosphatidylserine from the cell's cytoplasmic interface to the extracellular surface. This loss of membrane asymmetry can be detected using the binding properties of annexin V. Annexin V antibody conjugated with the fluorescent dye FITC was used to detect apoptosis. Briefly, 1×10^6 cells were pretreated with […] honokiol for 12 h, treated with 1 nM TNF for 16 h, and then subjected to annexin V staining. Cells were washed, stained with FITC-conjugated anti-annexin V antibody, and then analyzed with a flow cytometer (FACSCalibur; BD Biosciences).\nBy using caspase-activated PARP cleavage, it was shown that the enhanced cytotoxicity was due to apoptosis. TNF-induced PARP cleavage was enhanced in the honokiol-treated cells (FIG. 26C)."}, "[6]": {"system": "human promyelocytic leukemic cell line HL-60", "conditions": "cited from earlier work"}}, "data": [{"smiles": "C=CCc1ccc(O)c(-c2ccc(O)c(CC=C)c2)c1", "note": "[HNK, Honokiol]", "values": [{"measurement": "TNF-induced COX2 promoter activity", "setting": "[1]", "value": "inhibited the TNF-induced COX2 promoter activity in a dose-dependent manner"}, {"measurement": "APO2.7 positive cells", "setting": "[2]", "value": "32.9±0.6", "unit": "%"}, {"measurement": "APO2.7 positive cells in normal PBMNCs", "setting": "[3]", "value": "did not induce APO2.7 positive cells"}, {"measurement": "APO2.7 positive cells", "setting": "[4]", "value": "21.7±3.4", "unit": "%"}, {"measurement": "TNF-induced early apoptosis (annexin V staining)", "setting": "[5]", "value": "quite effective in enhancing the effects of TNF"}, {"measurement": "IC50 value", "setting": "[6]", "value": "less than 100 ng/ml"}]}]}
